From patent US6818445B2 (Synaptic Pharmaceutical Corporation, priority 1994, dated 2004)
pKi: −log10 of the molar value. Values joined by “and” are separate entries in the source; they are usually repeats but may differ in a detail not shown here. Identical values can stand only once. Counter-ions that a name gives are not always drawn. Like-named read-outs stand apart in the source and are kept apart here.

Experiments:
[1] = tested on: NPY-induced feeding behavior in satiated rats; assay: NPY-induced food intake in satiated rats; format: in vivo, rat; conditions: for Food intake (g) mean ± S.E.M., NPY + compound: compound 10 mg/kg i.p., then 300 pmole NPY i.c.v., 4 hours after NPY
[2] = tested on: food intake of 24 h food-deprived rats; assay: Food intake in food-deprived rats; format: in vivo, rat; conditions: 30 mg/kg i.p. after 24 h food deprivation, percentage of intake compared to control rats
[3] = biological target: human 5HT1Dβ receptor (Homo sapiens, UniProt P28222); assay: Binding to human 5HT1Dβ receptor, [3H]serotonin; conditions: cloned human receptor; read-out: Receptor (pKi) 5HT1Dβ (converted)
[4] = biological target: T1, human 5HT1F receptor (Homo sapiens, UniProt P30939); assay: Binding to human 5HT1F receptor, [3H]serotonin
T1 sequence (P30939 1-366): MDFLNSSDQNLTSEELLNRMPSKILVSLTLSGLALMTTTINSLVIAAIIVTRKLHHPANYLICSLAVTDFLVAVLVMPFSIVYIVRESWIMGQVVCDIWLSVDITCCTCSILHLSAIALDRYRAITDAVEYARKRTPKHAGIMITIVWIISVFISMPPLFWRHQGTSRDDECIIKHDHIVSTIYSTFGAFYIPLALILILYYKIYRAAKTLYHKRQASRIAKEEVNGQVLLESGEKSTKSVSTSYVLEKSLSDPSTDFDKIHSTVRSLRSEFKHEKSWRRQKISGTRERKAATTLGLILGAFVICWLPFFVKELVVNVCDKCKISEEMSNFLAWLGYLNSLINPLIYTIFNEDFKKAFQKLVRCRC

[5] = biological target: human 5HT1E receptor (Homo sapiens, UniProt P28566); assay: Binding to human 5HT1E receptor, [3H]serotonin
[6] = biological target: human 5HT1Dα receptor (Homo sapiens, UniProt P28221); assay: Binding to human 5HT1Dα receptor, [3H]serotonin
[7] = biological target: T2, human α2C receptor (Homo sapiens, UniProt P18825); assay: Binding to cloned human α2C adrenergic receptor, [3H]rauwolscine
T2 sequence (P18825 1-462): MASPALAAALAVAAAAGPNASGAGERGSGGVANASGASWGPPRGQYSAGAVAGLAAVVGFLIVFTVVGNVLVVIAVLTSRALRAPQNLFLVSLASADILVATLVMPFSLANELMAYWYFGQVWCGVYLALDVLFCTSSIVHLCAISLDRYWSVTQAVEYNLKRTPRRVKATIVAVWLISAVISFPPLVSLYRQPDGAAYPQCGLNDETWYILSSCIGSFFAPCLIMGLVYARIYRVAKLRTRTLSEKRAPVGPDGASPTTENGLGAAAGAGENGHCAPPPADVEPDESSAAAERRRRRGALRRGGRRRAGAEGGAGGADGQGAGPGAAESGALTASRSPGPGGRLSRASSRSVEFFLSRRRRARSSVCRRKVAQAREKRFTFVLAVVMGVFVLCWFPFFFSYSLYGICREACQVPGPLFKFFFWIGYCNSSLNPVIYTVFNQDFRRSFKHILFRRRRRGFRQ

[8] = biological target: human Y4 receptor (Homo sapiens, UniProt P50391); format: binding; conditions: Table 14; for Ki: read-out: Binding Affinity (Ki (nM) vs. ^125I-PYY) Human Receptor Y4
[9] = biological target: T3, human Y1 receptor (Homo sapiens, UniProt P25929); conditions: read-out: Binding Affinity (Ki (nM) vs. ^125I-PYY) Human Receptor Y1; Table 14
T3 sequence (P25929 1-384): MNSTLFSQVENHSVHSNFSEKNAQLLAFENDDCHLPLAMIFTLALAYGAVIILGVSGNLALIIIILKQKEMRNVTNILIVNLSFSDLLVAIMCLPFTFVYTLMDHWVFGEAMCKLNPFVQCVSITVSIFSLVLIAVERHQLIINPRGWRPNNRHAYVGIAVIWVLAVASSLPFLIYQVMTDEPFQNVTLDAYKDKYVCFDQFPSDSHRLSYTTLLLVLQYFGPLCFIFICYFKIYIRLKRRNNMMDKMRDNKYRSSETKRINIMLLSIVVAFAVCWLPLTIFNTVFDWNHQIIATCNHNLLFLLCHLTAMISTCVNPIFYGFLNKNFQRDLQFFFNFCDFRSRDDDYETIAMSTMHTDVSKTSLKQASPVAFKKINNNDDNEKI

[10] = biological target: T4, human Y2 receptor (Homo sapiens, UniProt P49146); format: binding; conditions: Table 14; for Ki: read-out: Binding Affinity (Ki (nM) vs. ^125I-PYY) Human Receptor Y2
T4 sequence (P49146 1-381): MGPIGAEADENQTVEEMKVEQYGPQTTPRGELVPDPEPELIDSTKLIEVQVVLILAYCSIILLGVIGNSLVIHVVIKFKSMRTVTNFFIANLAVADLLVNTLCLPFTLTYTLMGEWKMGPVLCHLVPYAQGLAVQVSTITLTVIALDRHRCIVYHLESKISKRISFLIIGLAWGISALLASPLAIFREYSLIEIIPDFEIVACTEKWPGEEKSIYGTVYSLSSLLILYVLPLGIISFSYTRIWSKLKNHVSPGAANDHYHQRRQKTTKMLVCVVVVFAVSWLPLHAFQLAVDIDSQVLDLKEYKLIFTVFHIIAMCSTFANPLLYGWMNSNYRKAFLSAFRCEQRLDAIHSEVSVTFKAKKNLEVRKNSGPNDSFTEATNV

Sequence of human 5HT1E receptor (P28566 whole entry): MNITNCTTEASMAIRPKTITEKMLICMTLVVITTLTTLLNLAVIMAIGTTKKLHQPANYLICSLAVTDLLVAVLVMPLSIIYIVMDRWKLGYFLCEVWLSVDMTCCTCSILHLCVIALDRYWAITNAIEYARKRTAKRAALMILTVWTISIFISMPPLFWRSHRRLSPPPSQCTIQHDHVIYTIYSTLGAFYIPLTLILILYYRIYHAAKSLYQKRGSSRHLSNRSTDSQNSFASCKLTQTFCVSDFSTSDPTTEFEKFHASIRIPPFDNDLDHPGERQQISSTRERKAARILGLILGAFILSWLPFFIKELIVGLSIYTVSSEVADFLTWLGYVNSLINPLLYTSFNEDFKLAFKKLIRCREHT
Sequence of human 5HT1Dβ receptor (P28222 whole entry): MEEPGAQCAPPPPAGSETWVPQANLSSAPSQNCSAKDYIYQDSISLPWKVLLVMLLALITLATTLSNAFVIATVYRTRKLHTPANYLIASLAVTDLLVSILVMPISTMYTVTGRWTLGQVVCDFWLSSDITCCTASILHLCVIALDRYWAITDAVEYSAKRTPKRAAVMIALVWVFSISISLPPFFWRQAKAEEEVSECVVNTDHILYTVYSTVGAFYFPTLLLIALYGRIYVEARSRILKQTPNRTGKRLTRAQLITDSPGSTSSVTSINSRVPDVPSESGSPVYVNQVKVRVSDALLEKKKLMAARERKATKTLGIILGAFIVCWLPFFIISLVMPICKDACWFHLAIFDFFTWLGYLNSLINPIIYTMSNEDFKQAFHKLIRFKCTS
Sequence of human 5HT1Dα receptor (P28221 whole entry): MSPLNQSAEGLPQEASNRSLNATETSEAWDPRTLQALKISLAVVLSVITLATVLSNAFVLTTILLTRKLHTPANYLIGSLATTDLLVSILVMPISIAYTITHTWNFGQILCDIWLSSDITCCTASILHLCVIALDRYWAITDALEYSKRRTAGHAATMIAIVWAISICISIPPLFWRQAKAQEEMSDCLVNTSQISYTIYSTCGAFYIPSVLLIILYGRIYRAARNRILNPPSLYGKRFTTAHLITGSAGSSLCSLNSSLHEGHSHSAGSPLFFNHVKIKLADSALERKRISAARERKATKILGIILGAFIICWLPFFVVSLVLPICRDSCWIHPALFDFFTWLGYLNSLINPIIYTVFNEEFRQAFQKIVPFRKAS
Sequence of human Y4 receptor (P50391 whole entry): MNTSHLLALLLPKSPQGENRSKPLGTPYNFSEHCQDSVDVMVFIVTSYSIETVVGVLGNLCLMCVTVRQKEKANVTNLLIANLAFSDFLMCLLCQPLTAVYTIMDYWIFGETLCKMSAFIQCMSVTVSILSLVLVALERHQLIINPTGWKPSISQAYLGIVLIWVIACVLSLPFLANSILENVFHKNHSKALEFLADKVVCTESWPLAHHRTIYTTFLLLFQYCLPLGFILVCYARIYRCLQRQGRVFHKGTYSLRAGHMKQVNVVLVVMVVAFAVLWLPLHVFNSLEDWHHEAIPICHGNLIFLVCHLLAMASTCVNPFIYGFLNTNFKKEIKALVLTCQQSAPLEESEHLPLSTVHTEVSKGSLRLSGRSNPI

| Ki [3] | pKi [4] | pKi [5] | Molecule | Two-hour food intake of food-deprived rats, Mean (%) [2] | other results |
| --- | --- | --- | --- | --- | --- |
| ≥ 5.01 µM | ≤ 5.30 | ≤ 5.30 | Cl.c1ccc(Nc2nc(Nc3ccccc3)c3ccccc3n2)cc1 [Compound 1, 2,4-Diphenylamino-quinazoline Hydrochloride] | 34% | Food intake (g) mean ± S.E.M., NPY + compound [1]: 4.6 ± 0.6 g |
|  |  |  | Nc1nc(NCCCCCCNS(=O)(=O)c2cccc3ccccc23)nc2ccccc12 [Compound 2, Naphthalene-1-sulfonic Acid [6-(4-amino-quinazolin-2-ylamino)-hexyl]-amide] | 42% |  |
|  | ≤ 5.30 | ≤ 5.30 | Cl.Nc1nc(NC[C@H]2CC[C@H](CNS(=O)(=O)c3cccc4ccccc34)CC2)nc2ccccc12 [Compound 5, trans-Naphthalene-1-sulfonic Acid {4-[(4-amino-quinazolin-2-ylamino)-methyl]-cyclohexylmethyl}-amide Hydrochloride] |  | Food intake (g) mean ± S.E.M., NPY + compound [1]: 4.1 ± 0.4 g |
| ≥ 5.01 µM | ≤ 5.30 | ≤ 5.30 | c1ccc(Nc2nc(Nc3ccc(N4CCCCC4)cc3)nc3ccccc23)cc1 [Compound 6, 2-[4-(Piperidin-1-yl)-phenylaminol-4-phenylamino-quinazoline Dihydrochloride] | 38% | pKi [6]: ≤ 5.30; Receptor (pKi) α2c [7]: 6.35 |
| ≥ 5.01 µM | ≤ 5.30 | ≤ 5.30 | COc1ccc(Nc2nc(Nc3ccccc3)c3cccc(OC)c3n2)cc1.Cl [Compound 9, 8-Methoxy-2-(4-methoxy-phenylamino)-4-phenylamino-quinazoline Hydrochloride] | 40% | pKi [6]: ≤ 5.30 |
| ≥ 5.01 µM | ≤ 5.30 | ≤ 5.30 | CNS(=O)(=O)Cc1ccc(Nc2nc(Nc3ccccc3)c3cc(OC)ccc3n2)cc1.Cl [Compound 10, N-Methyl-[4-(6-methoxy-4-phenylamino-quinazolin-2-ylamino)-phenyl]-methanesulfonamide Hydrochloride] | 74% | pKi [6]: ≤ 5.30 |
| ≥ 5.01 µM | ≤ 5.30 | ≤ 5.30 | CNS(=O)(=O)Cc1ccc(Nc2nc(Nc3ccccc3)c3ccccc3n2)cc1.Cl [Compound 11, N-Methyl-[4-(4-phenylamino-quinazolin-2-ylamino)-phenyl]-methanesulfonamide Hydrochloride] | 15% | pKi [6]: ≤ 5.30 |
|  |  |  | Cl.O=S(=O)(NC[C@H]1CC[C@H](CNCC2CCc3ccccc3C2)CC1)c1ccc2ccccc2c1 (some centres unmarked) [Compound 17] | 27% | Food intake (g) mean ± S.E.M., NPY + compound [1]: 3.8 ± 0.4 g |
|  |  |  | Cl.O=S(=O)(NCC1CCC(CNCc2ccc3ccccc3c2)CC1)c1ccccc1C(F)(F)F (centres unmarked) [Compound 21] | 80% | Ki [8]: 18500 nM; Ki [9]: 13000 nM; Ki [10]: 1610 nM |
|  |  |  | Cl.O=S(=O)(NCC1CCC(CNCc2cccc3ccccc23)CC1)c1ccccc1C(F)(F)F (centres unmarked) [Compound 23] | 58% | Ki [8]: 21500 nM; Ki [9]: 14500 nM; Ki [10]: 617 nM |
|  |  |  | Cl.Cl.O=[N+]([O-])c1ccccc1S(=O)(=O)NCC1CCC(CNCc2ccc3ccccc3n2)CC1 (centres unmarked) [Compound 26] | 73% | Ki [8]: 19300 nM; Ki [9]: 23700 nM; Ki [10]: 58200 nM |
|  |  |  | NPY: neuropeptide Y, species not given (Table 1, cited text); in Table 15 300 pmole porcine NPY i.c.v. [reference compound] |  | Food intake (g) mean ± S.E.M., NPY ([1]; 300 pmole NPY i.c.v. alone, cumulative intake 4 hours after NPY, one value per compound experiment): 7.4 ± 0.5 g and 6.8 ± 1.0 g and 5.8 ± 0.5 g and 4.9 ± 0.4 g |

| Molecule | Ki [3] | pKi [4] | pKi [5] | Two-hour food intake of food-deprived rats, Mean (%) [2] | other results |
| --- | --- | --- | --- | --- | --- |
| CC(=O)O[C@H]1CC[C@H](Nc2nc(Nc3ccccc3)c3ccccc3n2)CC1 [Compound 7, trans-2-(4-Acetoxy-cvclohexylamino)-4-phenylamino-quinazoline Hydrochloride] | ≥ 5.01 µM | ≤ 5.30 | ≤ 5.30 |  |  |
| O=S(=O)(NC[C@H]1CC[C@H](CNC(CO)Cc2ccc(Cl)cc2)CC1)c1cccc2ccccc12 (some centres unmarked) [Compound 25] |  | ≤ 5.30 | ≤ 5.30 | 32% | pKi [8]: 4.88; pKi [10]: 6.07 |
